As usually defined, the inhibition is the share of the control response that was lost under treatment. As usually defined, the pKa is the negative logarithm of the acid dissociation constant. Low values mean a stronger acid or weaker base, high ones a weaker acid or stronger base.

The values below come from patent US3968102A, “S-substituted-2-thioadenosines” (Kohjin Co., Ltd., priority 1974, dated 1976).

Read-outs that look alike come from different tables or passages of the source.

Data set [1] deals with rabbit platelet-rich plasma (ADP-induced platelet aggregation). The data set can be described thus: Inhibition of 10^-5 M ADP-induced platelet aggregation in rabbit platelet-rich plasma. The format is cell-based. Conditions: for inhibition at 100 µM / inhibition at 10 µM: Oryctolagus cuniculus, Platelet, 0.05 h; for inhibition at 100 µM: read-out: Inhibition (%) 10^-5 M ADP-Induced Aggregation; for inhibition at 10 µM: compound 10^-5 M.

Data set [2] concerns rabbit platelet-rich plasma (collagen-induced platelet aggregation). The data set can be described thus: Inhibition of collagen-induced platelet aggregation in rabbit platelet-rich plasma. Format: cell-based. The note with it: 3 minute incubation; for inhibition at 100 µM / inhibition at 10 µM: Oryctolagus cuniculus, Platelet, 0.05 h; for inhibition at 10 µM: compound 10^-5 M.

A short description of the next data set: pKa. The format is physicochemical.
Another data set deals with platelet aggregation. The note with it: cited from earlier work.
Data set [3] deals with platelet-rich plasma (platelet aggregation). The data set can be described thus: Persistence of platelet aggregation inhibitory activity on incubation with platelet-rich plasma. Format: cell-based, rabbit. As for the experimental part:
The platelet aggregation inhibitory activity of representative compounds of the formula (I) were determined in terms of the percent inhibitory activity against 10-^5 M adenosine-5'-diphosphate (hereinafter referred to as "ADP")-induced or collagen-induced platelet aggregation in rabbit platelet-rich plasma according to the procedure described by G. V. R. Born and M. J. Cross in Journal of Physiology, Vol. 168, p. 178 (1963). […]

The mark [4] stands for this setting: compound 10^-4 M, solvent PSS, 3 minute incubation.
The mark [5] stands for this setting: J. Med. Chem., Vol. 16, No. 12, 1381-1388 (1973).
Where [6] appears, read: compound 10^-4 M, solvent DMSO, 3 minute incubation.
Setting [7] is: solvent DMSO, 3 minute incubation.

For the compound `Nc1nc(SCCCO)nc2c1ncn2[C@@H]1O[C@H](CO)[C@@H](O)[C@H]1O` [2-(γ-Hydroxypropyl)thioadenosine], the inhibition at 100 µM in data set [1] (setting [4]) is 58%; in data set [2] (compound 10^-4 M, solvent PSS), 52%.
For the compound `CSc1nc(N)c2ncn([C@@H]3O[C@H](COP(=O)(O)O)[C@@H](O)[C@H]3O)c2n1` [Ammonium 2-Methylthioadenosine-5'-monophosphate, reference compound], the inhibition at 100 µM in data set [1] was 35%.
For the compound `Nc1nc(S)nc2c1ncn2[C@@H]1O[C@H](CO)[C@@H](O)[C@H]1O` [2-Thioadenosine], the inhibition at 100 µM in data set [1] (setting [4]) was found to be 10%; in data set [2] (compound 10^-4 M, solvent PSS) it was 36%. This compound also displayed a pKa in the data set “pKa” of 7.8. Further, the “inhibitory activity in ADP-induced platelet aggregation” value in the data set on platelet aggregation (setting [5]) is on record as “only a weak inhibitory activity”. The “inhibitory activity in collagen-induced platelet aggregation” value with platelet aggregation (setting [5]) was “only a weak inhibitory activity”.
Regarding `CCCSc1nc(N)c2ncn([C@@H]3O[C@H](CO)[C@@H](O)[C@H]3O)c2n1` [2-Propylthioadenosine, reference compound], in data set [1] (setting [4]), the inhibition at 100 µM was 16%.
Consider `Nc1nc(SC2CC3CCC2C3)nc2c1ncn2[C@@H]1O[C@H](CO)[C@@H](O)[C@H]1O` (stereo partly drawn) [2-(β-Norbornyl)thioadenosine], for which the inhibition at 100 µM in data set [1] (setting [6]) came to 89%; in data set [2] (compound 10^-4 M, solvent DMSO), 69%. Besides, the results for the inhibition at 10 µM in data set [1] (setting [7]) and in data set [2] (solvent DMSO) were 62% and 51%, respectively.
For the compound `Cc1ccccc1Sc1nc(N)c2ncn([C@@H]3O[C@H](CO)[C@@H](O)[C@H]3O)c2n1` [2-(o-Tolyl)thioadenosine], the values for the inhibition at 10 µM in data set [1] (setting [7]) and in data set [2] (solvent DMSO) were 61% and 57%, respectively.
In the case of `Nc1nc(SC2C3CC4CC(C3)CC2C4)nc2c1ncn2[C@@H]1O[C@H](CO)[C@@H](O)[C@H]1O` (stereo partly drawn) [2-(β-Adamantyl)thioadenosine], the inhibition at 100 µM worked out at 95% in data set [1] (setting [6]) and 72% in data set [2] (compound 10^-4 M, solvent DMSO). The inhibition at 10 µM in data set [1] (setting [7]) turned out to be 72%; in data set [2] (solvent DMSO) it was 61%.
Turning to `Nc1nc(Sc2ccc([N+](=O)[O-])cc2)nc2c1ncn2[C@@H]1O[C@H](CO)[C@@H](O)[C@H]1O` [2-(p-Nitrophenyl)thioadenosine], the inhibition at 100 µM in data set [1] (setting [6]) is 92%; in data set [2] (compound 10^-4 M, solvent DMSO) it was 81%.
Regarding `Nc1nc(Sc2cccnc2)nc2c1ncn2[C@@H]1O[C@H](CO)[C@@H](O)[C@H]1O` [2-(β-Pyridyl)thioadenosine], the “Inhibition (%) 10^-5 M ADP-Induced Aggregation” value in data set [1] (setting [4]) came to 61%. Besides, in data set [2] (compound 10^-4 M, solvent PSS), the “Inhibition (%) Collagen-Induced Aggregation” value is recorded as 52%.
`Nc1nc(SCCO)nc2c1ncn2[C@@H]1O[C@H](CO)[C@@H](O)[C@H]1O` [2-(β-Hydroxyethyl)thioadenosine]: the inhibition at 100 µM in data set [1] (setting [4]) is 52%; in data set [2] (compound 10^-4 M, solvent PSS), 30%.
Regarding `CSc1nc(N)c2ncn([C@@H]3O[C@H](COP(=O)(O)O)[C@@H](O)[C@H]3O)c2n1` [2-methylthioadenosine-5'-monophosphate], the “platelet aggregation inhibitory activity (prior art)” value in the data set on platelet aggregation (in words) is “only a weak platelet aggregation inhibitory activity”.
Turning to `Nc1ncnc2c1ncn2[C@@H]1O[C@H](CO)[C@@H](O)[C@H]1O` [Adenosine], the inhibition at 100 µM in data set [1] (setting [6]) is 76%; in data set [1] (setting [4]) it was 80%; in data set [2] (compound 10^-4 M, solvent DMSO), 68%; in data set [2] (compound 10^-4 M, solvent PSS), 71%. The inhibition at 10 µM in data set [1] (solvent PSS, 3 minute incubation) is 58%; in data set [2] (solvent PSS), 51%. The “inhibitory activity after 60 minutes of incubation with the platelet-rich plasma” value in data set [3] (60 minutes of incubation) is “disappears completely after 60 minutes of incubation”. In data set [3] (in words, from Table 1), the “inhibitory activity (control)” value is given as “fairly potent inhibitory activity”.
For the compound `CSc1nc(N)c2ncn([C@@H]3O[C@H](CO)[C@@H](O)[C@H]3O)c2n1` [2-Methylthioadenosine, reference compound], the inhibition at 100 µM in data set [1] (setting [4]) is 12%; in data set [2] (compound 10^-4 M, solvent PSS) it was 25%.
As to `Nc1ncnc2c1ncn2[C@@H]1O[C@H](COP(=O)(O)O)[C@@H](O)[C@H]1O` [Ammonium Adenosine-5'-monophosphate, reference compound], the inhibition at 100 µM in data set [1] (setting [4]) worked out at 5%.
`Nc1nc(Sc2ccccc2)nc2c1ncn2[C@@H]1O[C@H](CO)[C@@H](O)[C@H]1O` [2-Phenylthioadenosine]: the inhibition at 100 µM came to 98% in data set [1] (setting [6]) and 82% in data set [2] (compound 10^-4 M, solvent DMSO). Besides, the inhibition at 10 µM in data set [1] (setting [7]) worked out at 62%; in data set [2] (solvent DMSO), 58%.
